The term IC50 denotes the concentration that inhibits the measured activity by half. A lower IC50 goes with higher potency.

Data on two compounds can be found in patent US11964938B2, “3-phenyl-4-hexynoic acid derivatives as GPR40 agonists” (CELON PHARMA S.A., priority 2018, dated 2024).

Structures can show the parent of a compound that is named as a salt.

In one data set the target is T1, OATP1B3 (Homo sapiens, UniProt Q9NPD5).
T1 construct: host or cells: HEK293
T1 sequence (Q9NPD5 1-702): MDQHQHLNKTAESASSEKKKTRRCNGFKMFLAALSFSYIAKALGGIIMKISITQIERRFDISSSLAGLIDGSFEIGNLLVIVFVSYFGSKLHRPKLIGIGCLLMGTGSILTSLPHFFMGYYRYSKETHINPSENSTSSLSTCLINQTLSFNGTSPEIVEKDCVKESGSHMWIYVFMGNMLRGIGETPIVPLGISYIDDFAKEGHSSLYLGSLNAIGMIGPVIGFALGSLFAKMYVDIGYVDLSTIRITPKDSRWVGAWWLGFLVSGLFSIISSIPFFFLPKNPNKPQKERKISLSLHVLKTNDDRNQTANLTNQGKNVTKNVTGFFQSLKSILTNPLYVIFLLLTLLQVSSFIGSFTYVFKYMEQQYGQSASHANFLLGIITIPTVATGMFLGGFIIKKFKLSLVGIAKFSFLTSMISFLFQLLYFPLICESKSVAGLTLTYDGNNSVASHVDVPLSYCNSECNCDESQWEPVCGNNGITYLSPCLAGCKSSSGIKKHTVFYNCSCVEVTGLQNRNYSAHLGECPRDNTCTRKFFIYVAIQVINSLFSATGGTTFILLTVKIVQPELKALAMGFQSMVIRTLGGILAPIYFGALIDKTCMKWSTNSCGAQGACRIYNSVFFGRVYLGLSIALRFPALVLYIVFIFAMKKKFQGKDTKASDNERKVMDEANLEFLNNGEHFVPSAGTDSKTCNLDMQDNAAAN
Nature of the data set: Uptake transporter inhibition assay, OATP1B3. The settings on record: HEK293 cells overexpressing transporter. Type of data set: cell-based. How it is done: (§1) Experiment B4: Bile Acid Transporters Inhibition in the Liver.
(§2) The compound was tested on a panel of 10 transporters: BSEP, MRP2, MRP3, MRP4 in a vesicular transport inhibition assay and NTCP, OAT1, OAT2v1, OATP1A2, OATP1B1, OATP1B3 in an uptake transporter inhibition assays.
(§3) Transporter uptake inhibition test was performed on mammal HEK293 cells overexpressing of a respective transporter. Cells were cultured at 37±1° C. and seeded on 96-well tissue culture plate at 1×10^5/well. Substrate was removed prior to experiment and cells were washed twice with 100 μl of respective buffer (HK pH 7.4 for OATP1B1 and HBSS pH 7.4 for NTCP, OAT1, OAT2v1, OATP1A2, and OATP1B3). Uptake studies were performed at 37±1° C. in 50 μl of respective buffer containing radioactively tagged substrate and tested compound or solvent.
(§4) After experiment cells were washed twice with 100 μl of ice-cold respective buffer and lysed with 50 μl of 0.1M NaOH. Transport of radioactively tagged substrate was determined by scintillation counter measurement.

Another data set addresses T2, OATP1A2 (Homo sapiens, UniProt P46721).
T2 construct: host or cells: HEK293
T2 sequence (P46721 1-670): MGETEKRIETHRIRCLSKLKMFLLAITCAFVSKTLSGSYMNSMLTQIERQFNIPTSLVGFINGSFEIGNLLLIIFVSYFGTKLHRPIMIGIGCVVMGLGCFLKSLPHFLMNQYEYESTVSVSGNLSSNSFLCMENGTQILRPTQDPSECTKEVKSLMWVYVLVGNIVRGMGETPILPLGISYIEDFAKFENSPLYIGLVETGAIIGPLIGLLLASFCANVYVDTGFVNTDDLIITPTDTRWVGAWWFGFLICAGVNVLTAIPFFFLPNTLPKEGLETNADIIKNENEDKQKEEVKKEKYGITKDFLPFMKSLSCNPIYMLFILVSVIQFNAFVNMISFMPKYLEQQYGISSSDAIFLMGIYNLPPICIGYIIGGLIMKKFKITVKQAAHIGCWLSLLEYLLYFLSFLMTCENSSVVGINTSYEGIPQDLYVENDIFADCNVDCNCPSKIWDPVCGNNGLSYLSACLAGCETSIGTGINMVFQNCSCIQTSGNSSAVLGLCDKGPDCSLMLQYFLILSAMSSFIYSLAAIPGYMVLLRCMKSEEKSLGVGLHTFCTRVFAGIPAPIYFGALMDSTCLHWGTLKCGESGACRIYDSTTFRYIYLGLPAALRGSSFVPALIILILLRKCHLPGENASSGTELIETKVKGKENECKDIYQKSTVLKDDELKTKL
Briefly: Uptake transporter inhibition assay, OATP1A2. The class given is cell-based. To be noted: HEK293 cells overexpressing transporter. How it is done:
as §1, §2, §3, §4

Another data set concerns the target T3, NTCP (Homo sapiens, UniProt Q14973).
T3 construct: host or cells: HEK293
T3 sequence (Q14973 1-349): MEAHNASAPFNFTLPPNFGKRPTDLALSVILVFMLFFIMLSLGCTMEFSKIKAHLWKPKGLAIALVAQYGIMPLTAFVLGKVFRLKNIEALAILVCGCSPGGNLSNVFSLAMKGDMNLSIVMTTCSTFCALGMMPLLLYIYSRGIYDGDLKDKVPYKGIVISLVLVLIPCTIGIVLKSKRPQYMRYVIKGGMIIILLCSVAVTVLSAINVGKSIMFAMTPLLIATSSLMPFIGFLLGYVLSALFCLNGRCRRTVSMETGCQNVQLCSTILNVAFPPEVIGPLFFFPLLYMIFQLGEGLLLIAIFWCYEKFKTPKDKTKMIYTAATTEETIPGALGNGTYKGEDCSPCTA
Nature of the data set: Uptake transporter inhibition assay, NTCP. The class given is cell-based. To be noted: HEK293 cells overexpressing transporter. How it is done:
as §1, §2, §3, §4

The next data set has as its target T4, BSEP (Homo sapiens, UniProt O95342).
T4 construct: host or cells: HEK293 (membrane vesicles)
Briefly: Vesicular transport inhibition assay, BSEP. The class given is biochemical. The settings on record: membrane vesicles from HEK293 cells. How it is done:
Experiment B4: Bile Acid Transporters Inhibition in the Liver. […] The compound was tested on a panel of 10 transporters: BSEP, MRP2, MRP3, MRP4 in a vesicular transport inhibition assay and NTCP, OAT1, OAT2v1, OATP1A2, OATP1B1, OATP1B3 in an uptake transporter inhibition assays. Vesicular transport inhibition assay was performed on membrane vesicles isolated from mammal HEK293 cells overexpressing human ABC transporters. Tested compound were incubated with vesicles and substrates for respective tested transporters. Incubation was performed in the presence of 4 mM ATP or AMP in order to differentiate between uptake by a transporter and passive diffusion into vesicles. In the case of MRP2 and MRP3, reactions were performed in the presence of 2 mM glutathione. Tested compounds were added to the reaction mixture dissolved in 0.75 μl of a solvent (1% of final incubation volume). Reaction mixtures were preincubated for 15 minutes at 37±1° C. Reactions were started by the addition of 25 μl of 12 mM MgATP (or 12 mM AMP) in test buffer, as a background control, separately preincubated.

T4 sequence (O95342 whole entry): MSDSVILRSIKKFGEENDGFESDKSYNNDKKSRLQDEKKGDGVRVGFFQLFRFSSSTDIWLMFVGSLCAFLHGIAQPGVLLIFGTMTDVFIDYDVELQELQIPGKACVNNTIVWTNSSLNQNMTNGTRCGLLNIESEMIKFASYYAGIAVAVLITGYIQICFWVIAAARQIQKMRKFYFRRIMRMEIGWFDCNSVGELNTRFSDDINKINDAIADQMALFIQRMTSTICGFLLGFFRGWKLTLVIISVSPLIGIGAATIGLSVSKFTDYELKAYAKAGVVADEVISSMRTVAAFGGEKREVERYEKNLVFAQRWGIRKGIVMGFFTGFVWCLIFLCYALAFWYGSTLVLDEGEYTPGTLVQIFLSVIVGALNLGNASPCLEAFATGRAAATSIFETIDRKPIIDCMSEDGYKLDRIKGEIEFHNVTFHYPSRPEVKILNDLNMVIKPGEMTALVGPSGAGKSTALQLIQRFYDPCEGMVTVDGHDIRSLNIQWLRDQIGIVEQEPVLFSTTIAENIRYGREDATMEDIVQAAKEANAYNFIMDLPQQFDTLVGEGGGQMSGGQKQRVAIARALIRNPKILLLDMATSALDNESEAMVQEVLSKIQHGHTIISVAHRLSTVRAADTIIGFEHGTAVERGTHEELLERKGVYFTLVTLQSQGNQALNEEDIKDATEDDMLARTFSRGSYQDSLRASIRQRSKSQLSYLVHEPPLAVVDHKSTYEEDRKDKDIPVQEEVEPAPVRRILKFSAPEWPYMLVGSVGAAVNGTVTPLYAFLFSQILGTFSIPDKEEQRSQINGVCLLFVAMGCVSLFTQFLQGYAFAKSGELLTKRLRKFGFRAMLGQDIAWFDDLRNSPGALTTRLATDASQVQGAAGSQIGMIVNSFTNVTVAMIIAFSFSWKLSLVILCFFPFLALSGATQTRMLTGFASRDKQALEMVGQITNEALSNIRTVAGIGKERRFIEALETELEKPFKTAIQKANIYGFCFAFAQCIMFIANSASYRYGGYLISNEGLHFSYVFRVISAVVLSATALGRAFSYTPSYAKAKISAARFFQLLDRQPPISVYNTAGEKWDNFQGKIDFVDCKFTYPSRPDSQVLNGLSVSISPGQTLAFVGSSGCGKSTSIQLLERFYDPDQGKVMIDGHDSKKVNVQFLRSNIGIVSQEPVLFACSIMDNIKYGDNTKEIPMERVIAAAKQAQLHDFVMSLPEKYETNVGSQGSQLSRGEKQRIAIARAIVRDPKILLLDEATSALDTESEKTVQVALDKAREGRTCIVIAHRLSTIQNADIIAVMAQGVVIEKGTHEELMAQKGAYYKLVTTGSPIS

For the compound `Cc1cc(OCCCS(C)(=O)=O)cc(C)c1-c1cccc(COc2ccc3c(c2)OC[C@H]3CC(=O)O)c1` [Example R1, 2[(3S)-6-({3-[4-(3-methanesulfonylpropoxy)-2,6-dimethylphenyl]-phenyl}methoxy)-2,3-dihydro-1-benzofuran-3-yl]acetic acid, reference compound], the 50% inhibitory concentration (IC50) turned out to be 3.44 µM against OATP1B3, 10.6 µM against OATP1A2, 53.1 µM at NTCP and 30 µM on BSEP.

On to `CC#C[C@@H](CC(=O)O)c1ccc(OCC(C)=C(C)C)cc1` [Example S1, (3S)-3-{4-[(2,3-dimethylbut-2-en-1-yl)oxy]phenyl}hex-4-ynoic acid calcium salt], for which the IC50 is 42.9 µM on OATP1B3, 118 µM against OATP1A2, 46.8 µM against NTCP and over 100 µM at BSEP.
